The test system of assay [1] is cholesterol biosynthesis. Kind of assay: Measurement of cholesterol biosynthesis inhibitive activity in a rat liver cell. Format: cell-based. Conditions: isolated rat liver cells, [1-14C]acetic acid added 10 minutes after the specimen. How it is done: (§1) Measurement of Cholesterol and Triglyceride Biosynthesis Inhibitive Activities in a Rat Liver Cell
(§2) A liver cell was isolated from a male SD rat according to a usual method (collagenase perfusion method) and subjected to an experiment.
(§3) The isolated liver cells were planted in an amount of 500 μ1 every well on a Type collagen coated 24 well plate (cell density: 4×10^5 cell/ml). As the cell culture solution, a Williams'E medium (adjusted to pH 7.4) containing 10% FCS, 1 μM insulin, 1 μM dexamethasone, 100 units/ml penicillin and 10 μg/ml streptomycin was used. After the liver cells were incubated in a CO2 incubator for 2 hours, unstuck cells were removed and the liver cells were further incubated overnight.
(§4) After the culture medium was exchanged, the specimen diluted in a 10% DMSO-90% cell culture solution was added to each well in an amount of 5 μ1. DMSO (final concentration: 0.1%) was added to a control group. A [1-^14C]Acetic acid, sodium salt (5 μCi/well) was added to the media 10 minutes and 4 hours after the specimen was added for the measurement of cholesterol synthesis inhibitive action and for the measurement of triglyceride synthesis inhibitive action respectively, followed by culturing for further 2 hours.
(§5) After the cultivation was finished, the supernatant was removed and the cells were washed using PBS(−)(Phosphate buffered saline (Ca^2+, Mg^2+free) twice. Hexane/isopropyl alcohol (3:2, v/v) was added to the cells and the cells were then allowed to stand for 10 minutes to extract intracellular lipid. The extract was transferred to a glass tube and exsiccated under a nitrogen gas stream. Further, the exsiccated extract was washed with 25 mL of petroleum ether and then dissolved in petroleum ether containing the following components: 0.01% squalene, 0.3% free cholesterol, 0.3% cholesterol acetate, 0.1% triolein, 0.01% farnesol and 0.3% lanosterol.
(§6) The resulting solution was spotted on a TLC plate to perform an isolating operation. The spotted solution was developed for 10 minutes by using toluene/isopropyl ether (1:1, v/v) as the solvents and for further 15 minutes by using heptane in place of the above solvent after it was dried using air.
(§7) After the development was finished, the TLC plate was subjected to iodine color development. After each position of free cholesterol and triolein which were used as standards was confirmed, the image of the TLC plate was transferred to a BAS 2000 (Fuji Film) imaging plate by exposure performed for 16 hours. This transferred image was analyzed using a BAS 2000 IP Reader and an Imaging analyzer II to measure radiative activities contained in the free cholesterol and triglyceride fractions.
(§8) The cholesterol biosynthesis inhibitive activity was expressed by a concentration (IC50) at which 50% of the radiative activity of the control group was inhibited and the triceride biosynthesis inhibitive activity was expressed by an inhibition rate (%) to the control group.

The test system of assay [2] is triglyceride biosynthesis. In words: Measurement of triglyceride biosynthesis inhibitive activity in a rat liver cell. The format is cell-based. Conditions: for Triglyceride biosynthesis inhibitive activity inhibition in 1 μM of the specimen: isolated rat liver cells, [1-14C]acetic acid added 4 hours after the specimen, inhibition rate to control group; for inhibition at 1 µM: Rattus norvegicus, 6 h, read-out: Triglyceride biosynthesis inhibitive activity inhibition in 1 μM of the specimen. How it is done:
as §1, §2, §3, §4, §5, §6, §7, §8

In assay [3] the target is T1, squalene synthesizing enzyme (Rattus norvegicus, UniProt Q02769).
T1 construct: The liver was excised from a male Spraugue-Dawly rat; from tissue; host or cells: liver microsome fraction of male Sprague-Dawley rat (8 to 9 weeks)
T1 sequence (Q02769 1-416): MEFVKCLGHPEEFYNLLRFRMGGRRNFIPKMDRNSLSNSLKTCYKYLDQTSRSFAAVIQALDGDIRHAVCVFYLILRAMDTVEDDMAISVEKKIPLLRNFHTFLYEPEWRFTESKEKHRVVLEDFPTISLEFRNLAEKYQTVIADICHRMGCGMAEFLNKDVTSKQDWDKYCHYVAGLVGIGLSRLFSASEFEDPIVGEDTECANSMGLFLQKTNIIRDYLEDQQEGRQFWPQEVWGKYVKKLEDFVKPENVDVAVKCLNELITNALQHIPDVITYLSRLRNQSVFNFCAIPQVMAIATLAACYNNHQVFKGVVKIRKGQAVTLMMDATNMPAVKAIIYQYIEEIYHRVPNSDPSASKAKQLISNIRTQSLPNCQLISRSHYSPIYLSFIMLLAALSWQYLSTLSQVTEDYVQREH
In words: Measurement of squalene synthesizing enzyme inhibitive activity by using a rat liver microsome. The format is biochemical. As to conditions: [3H]-farnesylpyrophosphoric acid. How it is done: Measurement of Squalene Synthesizing Enzyme Inhibitive Activity by Using a Rat Liver Microsome
(I) The reaction was run on a scale of 500 μ1. 200 µl of a solution containing 125 mM tris-hydrochloric acid (pH: 7.3), 2.5 mM magnesium chloride, 5 mM potassium fluoride and 10 mM reduction type nicotinamidoadenine dinucleotide phosphoric acid, 100 µl of the specimen solution with a 5-fold concentration, 100 µl of distilled water and 50 µl of 0.4 to 1 mg/ml rat liver microsome prepared by the following method were mixed.
(II) The above mixture was pre-incubated at 37° C. for 10 minutes and thereafter, 50 µl of 100 μM [^3H]-farnesylpyrophosphoric acid (30 mCi/mmol, NEN) was added to the mixture to start a reaction. The reaction was continued at 37° C. for 10 minutes. 1 ml of ethanol was added to the resulting mixture to terminate the reaction and then 1 ml of distilled water and 3 ml of petroleum ether were added to the reaction solution, which was then shaken for 30 minutes. The water phase was separated from the oil phase, the water phase was frozen at −70° C. in dry ice/methanol and the radiative activity of the organic phase was measured using a liquid scintillator. Or the organic phase was evaporated to dryness using nitrogen gas and the residue was dissolved as a marker in 25 µl of chloroform containing squalene, farnesol and cholesterol. This sample was spotted on a TCL plate (Merck) and developed using heptane for 15 to 20 minutes. A band of squalene was cut from the plate to measure the radiative activity by using a liquid scintillation counter. The data was expressed by a concentration (IC50) at which 50% of the radiative activity of a control group was inhibited.
Method of the Preparation of a Rat Liver Microsome
The following operations were all carried out on ice and the centrifugation was performed at 4° C. The liver was excised from a male Spraugue-Dawly rat (hereinafter referred to as SD rat) (8 to 9 weeks age) and perfused with 1.15% potassium chloride to remove the blood. Then, the liver was minced using a forceps and the minced liver was homogenized using a Teflon homogenizer. The resulting sample was centrifuged at 16000×g twice for 15 minutes. The supernatant was further centrifuged at 105000×g for 60 minutes. The obtained deposit was determined as a microsome fraction, which was then suspended in a 25 mM tris-hydrochloric acid solution. The concentration of protein was measured quantitatively by a Bradford method and the concentration of protein was adjusted to 20 mg/ml by using the same solution. The resulting solution was stored at […].
(In general: Liver microsomes are a subcellular fraction often used to study metabolism.)

For assay [4], the system named is cholesterol biosynthesis. Kind of assay: Measurement of cholesterol biosynthesis inhibitive activity in a rat. Format: in vivo. Conditions: 2 h, male SD rat, oral, inhibition rate to control group. The method, then:
Measurement of Cholesterol Biosynthesis Inhibitive Activity in a Rat
(I) An SPF grade male SD rat (4 weeks age, SLC) was bred for more than one week in a day-night-reversal room and subjected to an experiment made in the daytime. The compound dissolved in a 2% Tween 80 solution was administered (5 ml/kg) to the rat using an oral sonde. After one hour, a [1-^14C]Acetic acid, sodium salt (1.67-2.22 GBq/mmol, 37 MBq/ml, NEN) prepared by diluting to 1.85 MBq/ml by using physiological saline was intraabdominally administered (300 μ1/animal). After one hour, the rat was anesthetized by diethyl ether to carry out exsanguination from the aorta abdominalis. The collected blood was centrifuged at 3000 rpm for 10 minutes to prepare blood plasma.
(II) 1 ml of 4N KOH and 1 ml of ethanol were added to 2 ml of the blood plasma, which was then incubated at 65° C. for one hour and there after, 3 ml of petroleum ether was added. The plasma was shaken for 30 minutes. After the water phase was separated from the organic phase by centrifugation, it was frozen at −80° C. and the radiative activity of the organic phase was measured using a liquid scintillation counter. Or the organic phase was evaporated to dryness using nitrogen gas and the residue was dissolved as a marker in 25 µl of chloroform containing squalene, farnesol and cholesterol. This sample was applied to a TCL plate (Merck) and developed using toluene and isopropyl ether (1:1) for 15 to 20 minutes. A band of cholesterol was cut from the plate to measure the radiative activity by using a liquid scintillation counter. The cholesterol biosynthesis inhibition activity was expressed by an inhibition rate (%) to a control group.

Experimental findings from patent publication US6599917B1, “Quinuclidine compounds and drugs containing the same as the active ingredient” (priority 1999, dated 2003) are described below.

As a reminder, the IC50 is the concentration at which inhibition is half-maximal. High values mean a need for much substance, low ones inhibition by little substance. `COC(C)COc1ccc(C#C[C@]2(O)CN3CCC2CC3)c(Cc2ccccc2)n1` (stereo partly drawn) [Example 149, (3S)-3-[2-Benzyl-6-(2-methoxypropyl)oxy-3-pyridyl]ethynyl-3-quinuclidinol] came in with an IC50 in the assay with cholesterol biosynthesis [1] (10 min) of 590 nM.

Turning to `CO[C@H]1CN(c2ccc(C#C[C@@]3(O)CN4CCC3CC4)c(Cc3ccccc3)n2)C[C@H]1OC` (relative stereo) [Example 120, (3R)-3-[2-Benzyl-6-(cis-3,4-dimethoxyprrolidine-1-yl)-3-pyridyl]ethynyl-3-quinuclidinol], in the assay on cholesterol biosynthesis [1], inhibition was half-maximal at 75 nM (IC50). For the same compound, in assay [2], the “Triglyceride biosynthesis inhibitive activity inhibition in 1 μM of the specimen” value stood at 80%.

In the case of `CO[C@@H]1CN(c2nc(Cc3ccccc3)c(C#C[C@@]3(O)CN4CCC3CC4)cc2Cl)C[C@H]1O` [Example 116, (3R)-(3R)-3-[2-Benzyl-5-chloro-6[(3R,4R)-3-hydroxy-4-methoxypyrrolidine-1-yl]-3-pyridyl]ethynyl-3-quinuclidinol], the results for the half-inhibitory concentration (IC50) (in assay [3]; with cholesterol biosynthesis [1] (10 min)) were 0.77 nM and 72 nM, respectively.

The inhibition is the change of the read-out against control, counted positive when it falls. Take `CO[C@H]1C(=O)N(c2ccc(C#C[C@@]3(O)CN4CCC3CC4)c(Cc3ccccc3)n2)C[C@H]1O` [Example 124, (3R)-3-[2-Benzyl-6-[(3R,4R)-4-hydroxy-3-methoxy-2-pyrrolidinone-1-yl]-3-pyridyl]ethynyl-3-quinuclidinol]: the 50% inhibitory concentration (IC50) in assay [3] was found to be 1.8 nM; with cholesterol biosynthesis [1] (10 min) it was 81 nM. Further, in assay [2], the inhibition at 1 µM is 79%.

As to `O=C1N(c2ccc(C#C[C@@]3(O)CN4CCC3CC4)c(Cc3ccccc3)n2)CCC12OCCO2` [Example 138, (3R)-3-[2-Benzyl-6-(3,3-ethylenedioxy-2-pyrrolidinone-1-yl)-3-pyridyl]ethynyl-3-quinuclidinol], the values for the IC50 (in assay [3]; in the assay on cholesterol biosynthesis [1] (10 min)) were 0.35 nM and 14 nM, respectively.

As for `CO[C@H]1CN(c2ccc(C#C[C@@]3(O)CN4CCC3CC4)c(Cc3ccccc3)n2)C[C@H]1O` [Example 106, (3R)-3-[2-Benzyl-6-[(3R,4S)-3-hydroxy-4-methoxypyrrolidine-1-yl)-3-pyridyl]ethynyl-3-quinuclidinol], the 50% inhibitory concentration (IC50) in assay [3] amounted to 6.9 nM. The inhibition at 1 µM in assay [2] came out at 81%.

Regarding `CO[C@@H]1CN(c2nc(Cc3ccccc3)c(C#C[C@@]3(O)CN4CCC3CC4)cc2Br)C[C@H]1O` [Example 117, (3R)-3-[2-Benzyl-5-bromo-6-[(3R,4R)-3-hydroxy-4-methoxypyrrolidine-1-yl]-3-pyridyl]ethynyl-3-quinuclidinol], the IC50 in assay [3] stood at 4.5 nM; in the assay with cholesterol biosynthesis [1] (10 min) it was 79 nM.

One may read the inhibition in vivo as the percentage by which the read-out fell short of the control. Higher therefore signals strong suppression. In the assay with cholesterol biosynthesis [4] (dose 3 mg/kg), `COC(C)COc1ccc(C#C[C@@]2(O)CN3CCC2CC3)c(Cc2ccccc2)n1` (stereo partly drawn) [Example 148, (3R)-3-[2-Benzyl-6-(2-methoxypropyl)oxy-3-pyridyl]ethynyl-3-quinuclidinol] came in with an inhibition in vivo at 3 mg/kg of 92%. The compound further came in with an IC50 in the assay with cholesterol biosynthesis [1] (10 min) of 160 nM.

Compound `CO[C@@H]1CN(c2ccc(C#C[C@@]3(O)CN4CCC3CC4)c(Cc3ccccc3)n2)C[C@@H]1F` [Example 110] registered a concentration for half-maximal inhibition (IC50) in assay [3] of 2.1 nM. The inhibition at 1 µM in assay [2] was 84%.

The compound `O[C@]1(C#Cc2cnc(-c3ccccn3)cc2Cc2ccccc2)CN2CCC1CC2` [Example 179, (3R)-3-[4-Benzyl-2-(2-pyridyl)-5-pyridyl]ethynyl-3-quinuclidinol] had an IC50 with cholesterol biosynthesis [1] (10 min) of 130 nM. The inhibition at 1 µM in assay [2] worked out at 84%.

In the case of `O[C@]1(C#Cc2cnc(-c3cccnc3)cc2Cc2ccccc2)CN2CCC1CC2` [Example 176, (3R)-3-[4-Benzyl-2-(3-pyridyl)-5-pyridyl]ethynyl-3-quinuclidinol], the inhibition at 1 µM in assay [2] was determined as 74%.

Regarding “(3R)-3-[4-Benzyl-2-[(3R,4R)-3-hydroxy-4-methoxypyrrolidine-1-yl]-3-pyrimidyl]ethynyl-3-quinuclidinol [Example 201]”, the IC50 in assay [3] worked out at 1.6 nM. Also, the “Triglyceride biosynthesis inhibitive activity inhibition in 1 μM of the specimen” value in assay [2] is recorded as 85%.

In turn, `O[C@]1(C#Cc2cnc(C3=COCCO3)cc2Cc2ccccc2)CN2CCC1CC2` [Example 186, (3R)-3-[4-Benzyl-2-(1,4-dioxene-2-yl)-5-pyridyl]ethynyl-3-quinuclidinol] displayed an IC50 with cholesterol biosynthesis [1] of 69 nM.

As to `OCCCOc1ccc(C#C[C@@]2(O)CN3CCC2CC3)c(Cc2ccccc2)n1` [Example 166, (3R)-3-[2-Benzyl-6-(3-hydroxypropyl)oxy-3-pyridyl]ethynyl-3-quinclidinol], the midpoint of inhibition in assay [3], the IC50, lay at 15 nM. Besides, the inhibition at 1 µM in assay [2] amounted to 82%.

Turning to `O[C@]1(C#Cc2ccc(OCCCF)nc2Cc2ccccc2)CN2CCC1CC2` [Example 150, (3R)-3-[2-Benzyl-6-(3-fluoropropyl)oxy-3-pyridyl]ethynyl-3-quinuclidinol], testing at 1 mg/kg in the assay with cholesterol biosynthesis [4] (dose 1 mg/kg) gave an inhibition in vivo of 73%. In addition, the inhibition at 1 µM in assay [2] worked out at 80%.
